Numbered stars: 1 amine (or outer) side, 2 acyl side, 3 side chain; on linkers, the order of the positions; unused ones are H or OH. Square brackets hold non-standard residues; d marks the D form. Peptide text beside a SMILES is read from it. azaPhe = O=C(N(Cc1ccccc1)N[*:1])[*:2]; azaPro = O=C(N1CCCN1[*:1])[*:2]
Assays:
Type in all cases: in vivo
[1] = tested on: CD36^+/+ and CD36^−/− mice; experiment: Area at risk and infarct size after 30-min LCAL and 48 hours reperfusion (Evans blue/TTC)
From the text: Animals. CD36^−/− mice were generated by targeted homologous recombination and backcrossed six times to C57BI/6. Wild-type control littermates (CD36^+/+) were bred from the same cross and were therefore of identical genetic background [Febbraio et al., 2000]. Male mice, aged 23 (±1) weeks, were used for experiments. They were fed standard chow (#5075, Charles Rivers, Saint-Constant, Québec, Canada) and water ad libitum, and housed singly during treatment periods (2 or 10 weeks). Daily pharmacological treatments with 300 μg/kg of EP 80317 or CP1A(IV) or vehicle (0.9% NaCl) were done by subcutaneous (s.c.) injections.
(§1) C57BU6 mice were bred in house. Male mice, aged 23 (±1) weeks, were used for experiments. They were fed standard chow (#5075, Charles Rivers, Saint-Constant, Québec, Canada) and water ad libitum, and housed singly during treatment periods (2 weeks). Daily pharmacological treatments with 300 μg/kg (289 nmol/kg) of EP 80317 or 289 nmol/kg of CP-3(IV), 289 nmol/kg of CP-AP-4 or vehicle (0.9% NaCl) were done by subcutaneous (s.c.) injections.
(§2) Experimental model of IHD: Transient left coronary artery ligation in vivo. Mice were subjected to a transient LCAL surgery as described before, with minor modifications [Tarnayski et al., 2004]. Mice were injected i.p. with buprenorphine (0.05 mg/kg) and placed in an induction chamber with inhalation anesthesia comprised of 3% isoflurane mixed with 100% oxygen. Mice were intubated with a blunt ended 20-gauge catheter into the trachea via the mouth and mechanically ventilated at a tidal volume of 7 ml/kg at 130 respirations/min with a MiniVent™ mouse ventilator (model 845, Harvard Apparatus, Saint-Laurent, QC, Canada). Anesthesia was maintained with 1.5-2% isoflurane and the animals were kept warm using electrical heating pads during the surgical procedure. The chest was opened by a horizontal incision through the skin and muscle layers at the third intercostal space exposing the left side of the heart. […] Visual blanching distal to the coronary occlusion confirmed myocardial ischaemia. Lidocaine (6 mg/kg) was administered i.p. just following occlusion and prior to reperfusion. After 30 minutes, the PE10 tubing was removed allowing reperfusion. The lungs were reinflated and the chest wound closed layer by layer before extubation. At 6 hours following reperfusion, mice were anesthetized (isoflurane), a blood sample withdrawn, and the heart arrested in diastole by an intravenous injection of 1 M KCl (0.5 mL). Hearts were immediately frozen at −80° C. unless otherwise stated.
Evaluation of area at risk and infarct size. Two days after reperfusion, the left anterior descending (LAD) coronary artery was re-occluded at the original site and the abdominal aorta was injected retrogradly with 5% Evans blue dye to delineate the AAR by the absence of dark blue staining. The left ventricle, including the interventricular septum, was dissected and cut into transverse 1-mm slices from the apex to the base, using an acrylic matrix (Alto Inc., Hatfield, Pa., USA). The slices were incubated in 1% triphenyltetrazolium chloride solution at 37° C. for 15 min and placed in 10% neutral buffered formalin for 12 hours. Each slice was weighed and photographed on both sides with a digital camera (Nikon, Coolpix™ 4500, Mississauga, Ontario, Canada). The total LV area, AAR and IA were determined for each side of a slice by planimetric analysis using Adobe CS3 Photoshop™ software (Ottawa, ON, Canada), and averaged. The infarct weight was determined as follows: [(A1×WT1)+(A2×WT2)+(A3×WT3)+(A4×WT4) . . . ] where A and WT are the infarct area and weight of the section, respectively. The AAR weight was calculated in a similar manner, but by subtracting the blue (viable) stained zone from the weight. The results are expressed in terms of % IA/AAR, IA/LV and AAR/LV.

C57BL/6 mice [2] = experiment: Blood lactate after transient ischemia; conditions: 6-hour reperfusion; 2 weeks 289 nmol/kg; P<0.05 compared to vehicle
Experimental: as §1, §2
Blood lactate. Blood lactate was determined using the Lactate Pro Analyser (FaCT Canada Consulting Ltd, Quesnel, BC, Canada), according to the manufacturer's instructions.

C57BL/6 mice [3] = experiment: Cardiac troponin I (cTnI) in plasma, ELISA; conditions: 48 hours post-ischemia; 2 weeks 289 nmol/kg; compared to vehicle
Experimental: as §1
as §2, with “At 6 hours following reperfusion, mice were anesthetized (isoflurane), a blood sample withdrawn, and the heart arrested in diastole by an intravenous injection of 1 M KCl (0.5 mL).” left out
Cardiac troponin I (cTnI) concentrations in plasma. cTnI plasma levels were assayed using the High Sensitivity Mouse Cardiac Troponin-I ELISA Kit (Life Diagnostics, Inc., West Chester, Pa., Cat. No. 2010-1-HSP), according to the manufacturer's instructions.

| Compound | area-at-risk ([1]; CD36^+/+ (C57BL/6) mice, 289 nmol/kg 2 weeks, 48 hours reperfusion, mean (±SE)) | reduction of IA/LV ratios ([1]; CD36^+/+ (C57BL/6) mice, 289 nmol/kg 2 weeks, 48 hours reperfusion, p<0.001 vs 0.9% NaCl) | reduction of lactate concentration in blood (C57BL/6 mice [2]) | reduction of cardiac troponin I (cTnI) levels in plasma (C57BL/6 mice [3]) | area-at-risk ([1]; mouse, in vivo) | reduction of IA/LV ratios ([1]; mouse, in vivo) | reduction of infarct area ([1]; 2-week pretreatment, same drug regimen (300 μg/kg/d), CD36^+/+ mice, 48 hours reperfusion) |
| --- | --- | --- | --- | --- | --- | --- | --- |
| NCCCC[C@H](NC(=O)[C@@H](Cc1ccccc1)NC(=O)[C@H](Cc1c[nH]c2ccccc12)NC(=O)N1CCCN1C(=O)[C@@H](Cc1c[nH]c2ccccc12)NC(=O)[C@@H](N)Cc1cnc[nH]1)C(N)=O [CP-AP-4, His-D-Trp-AzaPro-Trp-DPhe-Lys-NH2] (H-H[dW][azaPro]W[dF]K-NH2) | 50 (±4) % | 50% | 32% | 54% |  |  |  |
| C[C@H](N)C(=O)N[C@H](Cc1c[nH]c2ccccc12)C(=O)N[C@@H](C)C(=O)NN(Cc1ccccc1)C(=O)N[C@H](Cc1ccccc1)C(=O)N[C@@H](CCCCN)C(N)=O [CP-3(iv), Ala-D-Trp-Ala-AzaPhe-DPhe-Lys-NH2] (H-A[dW]A[azaPhe][dF]K-NH2) |  |  | 27% | 42% | 52 (±3) % | 56% |  |
| C[C@H](N)C(=O)NN(Cc1ccccc1)C(=O)N[C@@H](C)C(=O)N[C@@H](Cc1c[nH]c2ccccc12)C(=O)N[C@H](Cc1ccccc1)C(=O)N[C@@H](CCCCN)C(N)=O [CP1A(IV), Ala-AzaPhe-Ala-Trp-DPhe-Lys-NH2] (H-A[azaPhe]AW[dF]K-NH2) |  |  |  |  |  |  | 49% |

Source: US20100279941A1, “CD36 MODULATION AND USES THEREOF” (priority 2009, published 2010)
